According to ChEMBL document CHEMBL1201862, “PubChem BioAssay data set” (2004):
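Exposure lasted 48 hours, with cells grown in 96-well plates and compounds tested at five concentrations. Abbreviation: GI50, concentration required for 50% inhibition of growth.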 Active and inactive are the calls of the source. Cut-off read from the data, not from the text of the source: active = GI50 up to about 1.1 µM and inactive = higher.

Legend:
Assay in all cases: NCI anticancer screen, dose series, 48 h
A498 = system: A498
K562 = system: K562
HCT-116 = system: HCT-116
UACC-62 = system: UACC-62
NCI/ADR-RES = system: NCI/ADR-RES
Hs-578T = system: Hs-578T
ACHN = system: ACHN
EKVX = system: EKVX
BT-549 = system: BT-549
MCF7 = system: MCF7
IGROV-1 = system: IGROV-1
PC-3 = system: PC-3
Malme-3M = system: Malme-3M
MDA-MB-231 = system: MDA-MB-231
MDA-N = system: MDA-N
SF-295 = system: SF-295
T47D = system: T47D
A549 = system: A549
RPMI-8226 = system: RPMI-8226
SN12C = system: SN12C
SK-OV-3 = system: SK-OV-3
COLO 205 = system: COLO 205
HCC 2998 = system: HCC 2998
SF-268 = system: SF-268
DU-145 = system: DU-145
UACC-257 = system: UACC-257
SK-MEL-2 = system: SK-MEL-2
UO-31 = system: UO-31
NCI-H23 = system: NCI-H23
SNB-19 = system: SNB-19
NCI-H226 = system: NCI-H226
SF-539 = system: SF-539
U-251 = system: U-251
MDA-MB-435 = system: MDA-MB-435
M14 = system: M14
OVCAR-4 = system: OVCAR-4
MOLT-4 = system: MOLT-4
CCRF-CEM = system: CCRF-CEM
TK-10 = system: TK-10
786-0 = system: 786-0
CAKI-1 = system: CAKI-1
OVCAR-3 = system: OVCAR-3
SNB-75 = system: SNB-75
HOP-62 = system: HOP-62
HCT-15 = system: HCT-15
RXF 393 = system: RXF 393
NCI-H522 = system: NCI-H522
SW-620 = system: SW-620
HT-29 = system: HT-29
SK-MEL-5 = system: SK-MEL-5
SK-MEL-28 = system: SK-MEL-28
OVCAR-5 = system: OVCAR-5
OVCAR-8 = system: OVCAR-8
HL-60 = system: HL-60
HOP-92 = system: HOP-92
KM12 = system: KM12
NCI-H460 = system: NCI-H460
LOX IMVI = system: LOX IMVI
SR = system: SR

## C/C(=N/NC(=S)Nc1ccc(C)cc1)c1ccccn1
A498
  GI50: 2.51 µM (inactive)
K562
  GI50: < 0.0127 µM (active)
HCT-116
  GI50: < 0.0146 µM (active)
UACC-62
  GI50: 0.105 µM (active)
NCI/ADR-RES
  GI50: < 0.0152 µM (active)
Hs-578T
  GI50: 0.859 µM (active)
ACHN
  GI50: 0.0515 µM (active)
EKVX
  GI50: 0.0601 µM (active)
BT-549
  GI50: 4.38 µM (inactive)
MCF7
  GI50: 0.0146 µM (active)
IGROV-1
  GI50: < 0.0155 µM (active)
PC-3
  GI50: < 0.0153 µM (active)
Malme-3M
  GI50: 0.505 µM (active)
MDA-MB-231
  GI50: < 0.0154 µM (active)
MDA-N
  GI50: 1.1 µM (active)
SF-295
  GI50: 0.193 µM (active)
T47D
  GI50: 0.049 µM (active)
A549
  GI50: 0.5 µM (active)
RPMI-8226
  GI50: < 0.0156 µM (active)
SN12C
  GI50: 0.192 µM (active)
SK-OV-3
  GI50: 0.0363 µM (active)
COLO 205
  GI50: < 0.0166 µM (active)
HCC 2998
  GI50: 3.48 µM (inactive)
SF-268
  GI50: 0.114 µM (active)
DU-145
  GI50: 0.794 µM (active)
UACC-257
  GI50: < 0.0163 µM (active)
SK-MEL-2
  GI50: 1.41 µM (inactive)
UO-31
  GI50: 0.266 µM (active)
NCI-H23
  GI50: < 0.0185 µM (active)
SNB-19
  GI50: 2.29 µM (inactive)
NCI-H226
  GI50: 0.0908 µM (active)
SF-539
  GI50: 0.815 µM (active)
U-251
  GI50: 0.125 µM (active)
MDA-MB-435
  GI50: 1.07 µM (active)
M14
  GI50: 0.0446 µM (active)
OVCAR-4
  GI50: 1.47 µM (inactive)
MOLT-4
  GI50: < 0.0122 µM (active)
CCRF-CEM
  GI50: < 0.0124 µM (active)
TK-10
  GI50: 0.19 µM (active)
786-0
  GI50: 0.0427 µM (active)
CAKI-1
  GI50: 0.0968 µM (active)
OVCAR-3
  GI50: 0.0179 µM (active)
SNB-75
  GI50: 1.26 µM (inactive)
HOP-62
  GI50: 0.029 µM (active)
HCT-15
  GI50: 0.0221 µM
RXF 393
  GI50: 0.78 µM (active)
NCI-H522
  GI50: 0.12 µM (active)
SW-620
  GI50: < 0.0164 µM (active)
HT-29
  GI50: < 0.0366 µM (active)
SK-MEL-5
  GI50: 0.12 µM (active)
SK-MEL-28
  GI50: 2.1 µM (inactive)
OVCAR-5
  GI50: 0.0493 µM (active)
OVCAR-8
  GI50: 0.0258 µM (active)
HL-60
  GI50: < 0.0132 µM (active)
HOP-92
  GI50: 0.719 µM (active)
KM12
  GI50: 0.122 µM (active)
NCI-H460
  GI50: 0.263 µM (active)
LOX IMVI
  GI50: 0.0162 µM (active)

## NC(=S)N/N=C1\c2ccccc2CCC1CCC1(O)CCc2ccccc2C1=O (centres undefined)
K562
  GI50: > 10 µM (inactive)
HCT-116
  GI50: 18.7 µM (inactive)
UACC-62
  GI50: 17.8 µM (inactive)
NCI/ADR-RES
  GI50: 13.8 µM (inactive)
Hs-578T
  GI50: 16.1 µM (inactive)
ACHN
  GI50: 35.5 µM (inactive)
EKVX
  GI50: 11.4 µM (inactive)
BT-549
  GI50: 16.4 µM (inactive)
MCF7
  GI50: 17.8 µM (inactive)
IGROV-1
  GI50: 37.8 µM (inactive)
PC-3
  GI50: 31 µM (inactive)
Malme-3M
  GI50: 19.8 µM (inactive)
MDA-MB-231
  GI50: 26.8 µM (inactive)
MDA-N
  GI50: 25.2 µM (inactive)
SF-295
  GI50: 23 µM (inactive)
T47D
  GI50: 4.04 µM (inactive)
A549
  GI50: 36.1 µM (inactive)
RPMI-8226
  GI50: 24.9 µM (inactive)
SN12C
  GI50: 18.1 µM (inactive)
SK-OV-3
  GI50: > 100 µM (inactive)
COLO 205
  GI50: 17.7 µM (inactive)
SF-268
  GI50: 42.1 µM (inactive)
DU-145
  GI50: 37.8 µM (inactive)
UACC-257
  GI50: 18 µM (inactive)
UO-31
  GI50: 12 µM (inactive)
NCI-H23
  GI50: 25.5 µM (inactive)
SNB-19
  GI50: 34.8 µM (inactive)
SF-539
  GI50: 15.3 µM (inactive)
U-251
  GI50: 28.6 µM (inactive)
MDA-MB-435
  GI50: 20.9 µM (inactive)
M14
  GI50: 16.4 µM (inactive)
OVCAR-4
  GI50: 34 µM (inactive)
MOLT-4
  GI50: 24.5 µM (inactive)
CCRF-CEM
  GI50: 22.6 µM (inactive)
TK-10
  GI50: 13.6 µM (inactive)
CAKI-1
  GI50: 58.3 µM (inactive)
OVCAR-3
  GI50: 18 µM (inactive)
SNB-75
  GI50: 15.7 µM (inactive)
HOP-62
  GI50: 57.4 µM (inactive)
HCT-15
  GI50: 39.7 µM
RXF 393
  GI50: 16.2 µM (inactive)
SW-620
  GI50: 28 µM (inactive)
HT-29
  GI50: 19.8 µM (inactive)
SR
  GI50: 35.2 µM (inactive)
SK-MEL-5
  GI50: 15 µM (inactive)
SK-MEL-28
  GI50: 20.7 µM (inactive)
OVCAR-5
  GI50: 26 µM (inactive)
OVCAR-8
  GI50: 16.6 µM (inactive)
HL-60
  GI50: 2.74 µM (inactive)
KM12
  GI50: 26.9 µM (inactive)
NCI-H460
  GI50: 16 µM (inactive)
LOX IMVI
  GI50: 19.3 µM (inactive)

## CCN(CCCN(CC)C(=O)Nc1c(C)cccc1C)C(=O)Nc1c(C)cccc1C
A498
  GI50: > 100 µM (inactive)
K562
  GI50: > 100 µM (inactive)
HCT-116
  GI50: > 100 µM (inactive)
UACC-62
  GI50: > 100 µM (inactive)
NCI/ADR-RES
  GI50: > 100 µM (inactive)
Hs-578T
  GI50: > 100 µM (inactive)
ACHN
  GI50: > 100 µM (inactive)
EKVX
  GI50: > 100 µM (inactive)
BT-549
  GI50: > 100 µM (inactive)
MCF7
  GI50: > 100 µM (inactive)
IGROV-1
  GI50: > 100 µM (inactive)
PC-3
  GI50: > 100 µM (inactive)
Malme-3M
  GI50: > 100 µM (inactive)
MDA-MB-231
  GI50: > 100 µM (inactive)
MDA-N
  GI50: > 100 µM (inactive)
SF-295
  GI50: > 100 µM (inactive)
T47D
  GI50: 35.4 µM (inactive)
A549
  GI50: > 100 µM (inactive)
RPMI-8226
  GI50: > 100 µM (inactive)
SN12C
  GI50: > 100 µM (inactive)
SK-OV-3
  GI50: > 100 µM (inactive)
COLO 205
  GI50: > 100 µM (inactive)
HCC 2998
  GI50: > 100 µM (inactive)
SF-268
  GI50: > 100 µM (inactive)
DU-145
  GI50: > 100 µM (inactive)
UACC-257
  GI50: > 100 µM (inactive)
SK-MEL-2
  GI50: > 100 µM (inactive)
UO-31
  GI50: 92.3 µM (inactive)
NCI-H23
  GI50: > 100 µM (inactive)
SNB-19
  GI50: > 100 µM (inactive)
NCI-H226
  GI50: > 100 µM (inactive)
U-251
  GI50: > 100 µM (inactive)
MDA-MB-435
  GI50: > 100 µM (inactive)
M14
  GI50: > 100 µM (inactive)
OVCAR-4
  GI50: > 100 µM (inactive)
MOLT-4
  GI50: > 100 µM (inactive)
TK-10
  GI50: > 100 µM (inactive)
786-0
  GI50: > 100 µM (inactive)
CAKI-1
  GI50: > 100 µM (inactive)
SNB-75
  GI50: 40.3 µM (inactive)
HOP-62
  GI50: > 100 µM (inactive)
HCT-15
  GI50: > 100 µM
RXF 393
  GI50: 43.1 µM (inactive)
NCI-H522
  GI50: > 100 µM (inactive)
SW-620
  GI50: > 100 µM (inactive)
HT-29
  GI50: > 100 µM (inactive)
SK-MEL-5
  GI50: > 100 µM (inactive)
SK-MEL-28
  GI50: > 100 µM (inactive)
OVCAR-5
  GI50: > 100 µM (inactive)
OVCAR-8
  GI50: > 100 µM (inactive)
HOP-92
  GI50: > 100 µM (inactive)
KM12
  GI50: > 100 µM (inactive)
NCI-H460
  GI50: > 100 µM (inactive)
LOX IMVI
  GI50: > 100 µM (inactive)
